Data from patent publication US5643917A, “4-aminomethyl-1-azaadamantane derived benzamides” (priority 1995, dated 1997).
Counter-ions that a name gives are not always drawn.

What was measured:
GI transit [1] = conditions: man; cited from earlier work
GI transit [2] = conditions: man; cited from earlier work; remark: listed apart in the source
5-HT3 receptors = molecular target: T1, 5-HT3 receptors (Mus musculus, UniProt P23979); experiment: Serotonin 5-HT3 receptor binding assay, [3H]GR65630, NG108-15 membranes; conditions: for Ki: Ki (5-HT3 receptors), [3H]GR65630 1 nM, apparent Ki calculated from IC50
T1 construct: endogenous in cells; host or cells: NG108-15 neuroblastoma cells (membranes)
T1 sequence (P23979 24-489): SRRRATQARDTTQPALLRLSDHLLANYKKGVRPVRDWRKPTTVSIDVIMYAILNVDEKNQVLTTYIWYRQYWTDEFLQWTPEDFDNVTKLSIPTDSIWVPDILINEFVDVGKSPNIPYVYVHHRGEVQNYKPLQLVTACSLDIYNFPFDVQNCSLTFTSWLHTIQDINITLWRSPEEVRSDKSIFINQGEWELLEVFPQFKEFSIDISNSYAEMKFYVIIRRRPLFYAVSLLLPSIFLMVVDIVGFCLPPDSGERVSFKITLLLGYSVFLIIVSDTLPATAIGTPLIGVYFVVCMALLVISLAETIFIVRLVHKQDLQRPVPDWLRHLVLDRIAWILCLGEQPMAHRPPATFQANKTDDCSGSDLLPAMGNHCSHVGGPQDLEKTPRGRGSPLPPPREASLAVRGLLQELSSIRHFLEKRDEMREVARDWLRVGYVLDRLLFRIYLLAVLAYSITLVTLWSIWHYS
Description: Preparation of Membrane Suspensions
NG108-15 neuroblastoma cells were cultured at 37° C. in closed culture flasks for 3-4 days or to confluence (6-16×10^6 cells/flask). […] The cells were centrifuged at 900×g for five minutes at 4° C. At this point the cells could be frozen. The (frozen or freshly prepared) pellets from each flask were suspended in 4 ml buffer and homogenized a second time as above. The resulting supernatant was used for radioligand binding studies.
To each well of a microtiter plate were added 100 μl tissue, 50 μl [^3 H]GR65630 (4 nM stock, SA=64 Ci/mmol from Dupont/NEN) and 50 μl drugs. Nonspecific binding was measured in the presence of 10 μM zacopride. Reactions were incubated for 45-60 minutes at 25° C. followed by filtration under reduced pressure through GF/B-type filters with the aid of either a Brandel or Skatron macro harvester. The filters were washed with ice-cold buffer (a 6 sec wash time on the Skatron harvester, using filters presoaked with polyethylenimine) and specific binding was measured by either a Packard CA 1900 or an LKB Betaplate counter. […] IC50 values were determined for test drugs, and Ki values calculated from the equation: […]

[3] = tested on: guinea pig stomach muscle strip; conditions: cited from earlier work
gastric emptying [4] = conditions: cited from earlier work
gastric emptying [5] = conditions: in vivo; cited from earlier work
antroduodenal motility = conditions: coadministered with cisapride; dogs; cited from earlier work
5-HT4 receptor subtype = conditions: mouse embryonic colliculi neurons; cited from earlier work
5-HT4 receptors = conditions: cited from earlier work
[6] = tested on: gastric emptying of solid meals; experiment: Canine gastric emptying in vivo model, alpha-2 adrenergic model of gastroparesis, solid meal; design: species or system dog; conditions: % emptied, treated, emptying delayed by alpha-2 adrenergic agonist
[7] = tested on: peristalsis in the GI tract; conditions: various animal models; cited from earlier work
[8] = tested on: transit of a charcoal meal; conditions: mouse, in vivo; cited from earlier work
[9] = tested on: guinea pig stomach strips; conditions: cited from earlier work
[10] = tested on: 5-HT3-mediated Bezold Jarisch reflex; conditions: in vivo; cited from earlier work

## Cc1nccn1CC1CCc2c(c3ccccc3n2C)C1=O (stereo not shown) [GR38032]
GI transit [1]
  small intestinal transit times or mouth-to-cecum transit times: did not alter small intestinal transit times or mouth-to-cecumtransit times
GI transit [2]
  GI transit: failed to accelerate GI transit
  colonic transit: slowed colonic transit in man

## COc1cc(N)c(Cl)cc1C(=O)NCC1C2CC3CC1CN(C3)C2 (stereo not drawn) [Example 2, Endo-4-amino-N-(1-azacyclo[3.3.1.1^3,7]decan-4-ylmethyl)-5-chloro-2-methoxybenzamide hydrochloride]
5-HT3 receptors; NG108-15 membranes, 25° C.
  Ki: 0.144 µM

## Cc1nc[nH]c1CCC(=O)c1cn(C)c2ccccc12 [[^3 H]GR65630]
5-HT3 receptors
  Kd: 0.0015 µM
5-HT3 receptors; radioligand, NG108-15 membranes, 25° C.
  Bmax: 195 fmole/mg protein

## CN1[C@@H]2CC[C@H]1C[C@@H](OC(=O)c1c[nH]c3ccccc13)C2 [ICS-205930]
[3]
  guinea pig stomach muscle strip contraction in vitro: enhanced guinea pig stomach muscle strip contraction in vitro
Gastric emptying [4]
  gastric emptying rates in vivo: increases in gastric emptying rates in vivo
Gastric emptying [5]
  gastric emptying: enhanced gastric emptying
Antroduodenal motility
  effect on the responses to cisapride: did not affect the responses to cisapride

## CN1[C@@H]2CC[C@H]1C[C@@H](OC(=O)c1cc(Cl)cc(Cl)c1)C2 [MDL 72222]
[3]
  guinea pig stomach muscle strip contraction in vitro: enhanced guinea pig stomach muscle strip contraction in vitro
Gastric emptying [4]
  gastric emptying rates in vivo: increases in gastric emptying rates in vivo

## COc1cc(N)c(Cl)cc1C(=O)NC1CCN2CCCC1C2 (stereo not shown) [BRL-24924]
5-HT4 receptor subtype
  correlation of prokinetic activity with 5-HT4 agonist activity: correlate with agonist activity at a novel 5-HT4 receptor subtype
5-HT4 receptors
  receptor mediating the peristaltic reflex: mediated through agonism at 5-HT4 receptors

## COc1cc(N)c(Cl)cc1C(=O)NCC1C2CC3CC1CN(C3)C2 (stereo not drawn) [Example 4, Exo-4-amino-N-(1-azacyclo[3.3.1.1^3,7]decan-4-ylmethyl)-5-chloro-2-methoxybenzamide, hydrochloride]
[6]; control 20.2%, at 0.3 mg/kg IV
  Canine Solid Gastric Emptying (% Control to Treat): 35.1%
5-HT3 receptors; NG108-15 membranes, 25° C.
  Ki: 0.0257 µM

## COc1cc(N)c(Cl)cc1C(=O)NC1CCN(CCCOc2ccc(F)cc2)CC1OC (stereo not shown) [Cisapride]
[6]; control 23.2%, at 0.3 mg/kg IG
  Canine Solid Gastric Emptying (% Control to Treat): 36.6%
5-HT4 receptor subtype
  correlation of prokinetic activity with 5-HT4 agonist activity: correlate with agonist activity at a novel 5-HT4 receptor subtype

## NCCc1c[nH]c2ccc(O)cc12 [Serotonin, 5-hydroxytryptamine]
5-HT4 receptors
  receptor mediating the peristaltic reflex: mediated through agonism at 5-HT4 receptors
[7]
  peristalsis in the GI tract: promote peristalsis in the GI tract

## Cc1nccn1CC1CCc2c(c3ccccc3n2C)C1=O.Cl.O.O (stereo not shown) [SN-307]
[8]
  transit of a charcoal meal in mice: enhanced transit of a charcoal meal in mice

## CCN(CC)CCNC(=O)c1cc(Cl)c(N)cc1OC [metoclopramide]
[9]
  electrical-field stimulated contractions in guinea pig stomach strips: enhanced electrical-field stimulated contractions
[3]
  guinea pig stomach muscle strip contraction in vitro: enhanced guinea pig stomach muscle strip contraction in vitro
Gastric emptying [4]
  gastric emptying rates in vivo: increases in gastric emptying rates in vivo
[10]
  5-HT3-mediated Bezold Jarisch reflex: blocks the 5-HT3 -mediated Bezold Jarisch reflex
